Assays:
green foxtail = test: Test Example 5: herbicidal effect by foliage application, plastic box (Table 20, symbol G); format: in vivo, green foxtail (Setaria viridis)
Procedure, shortened: (§1)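 Plants sown in sterilized diluvial soil and grown 14 days in a greenhouse at 25° C to 30° C, then sprayed on the foliage with the compound's emulsion diluted in water to a predetermined herbicide amount. Injury to weeds and crops scored three weeks after application on a visual rating scale.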

rice flat sedge = test: Test Example 3: herbicidal effect by foliage application, Wagner pot (Table 18, symbol E); format: in vivo, rice flat sedge (Cyperus iria)
Procedure, shortened: (§2)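 Plants were sown in alluvial soil held under 0.1–0.5 cm standing water and grown 14 days in a greenhouse at 25–30 °C. An emulsifiable formulation, water-diluted to the set dose, was then sprayed onto the foliage, and effects were scored three weeks later using previously defined criteria.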

Italian ryegrass = test: Test Example 5: herbicidal effect by foliage application, plastic box (Table 20, symbol K); format: in vivo, Italian ryegrass (Lolium multiflorum)
Procedure, shortened: as §1

velvetleaf = test: Test Example 5: herbicidal effect by foliage application, plastic box (Table 20, symbol M); format: in vivo, velvetleaf (Abutilon theophrasti)
Procedure, shortened: as §1

blackgrass = test: Test Example 5: herbicidal effect by foliage application, plastic box (Table 20, symbol J); format: in vivo, blackgrass (Alopecurus myosuroides)
Procedure, shortened: as §1

Chinese sprangletop = test: Test Example 3: herbicidal effect by foliage application, Wagner pot (Table 18, symbol D); format: in vivo, chinese sprangletop (Leptochloa chinensis)
Procedure, shortened: as §2

barnyard grass [1] = test: Test Example 5: herbicidal effect by foliage application, plastic box (Table 20, symbol H); format: in vivo, barnyard grass (Echinochloa crus-galli)
Procedure, shortened: as §1

redroot pigweed = test: Test Example 5: herbicidal effect by foliage application, plastic box (Table 20, symbol N); format: in vivo, redroot pigweed (Amaranthus retroflexus)
Procedure, shortened: as §1

southern crabgrass = test: Test Example 5: herbicidal effect by foliage application, plastic box (Table 20, symbol F); format: in vivo, southern crabgrass (Digitaria ciliaris)
Procedure, shortened: as §1

lambsquarters = test: Test Example 5: herbicidal effect by foliage application, plastic box (Table 20, symbol O); format: in vivo, lambsquarters (Chenopodium album)
Procedure, shortened: as §1

barnyard grass [2] = test: Test Example 3: herbicidal effect by foliage application, Wagner pot (Table 18, symbol H); format: in vivo, barnyard grass (Echinochloa crus-galli)
Procedure, shortened: as §2

chickweed = test: Test Example 5: herbicidal effect by foliage application, plastic box (Table 20, symbol P); format: in vivo, common chickweed (Stellaria media)
From the text: [Test Example 5] Herbicidal Effect Test by Foliage Application
Sterilized diluvial soil was placed in a plastic box having a length of 21 cm, a width of 13 cm, and a depth of 7 cm. The seeds of each of southern crabgrass, green foxtail, barnyard grass, wild oat, blackgrass, Italian ryegrass, windgrass, velvetleaf, redroot pigweed, lambsquarters, chickweed, false cleavers, persian speedwell, corn, soybean, rice, wheat, beet, and rapeseed were sowed in a spot-like manner and covered with the soil having a thickness of about 1.5 cm. Thereafter, the plants were grown in a greenhouse at 25° C. to 30° C. After 14-day growth of the plants, the emulsion agent of the compound of the present invention prepared according to Formulation Example 2 was diluted with water so as to achieve a predetermined herbicide amount, and the diluted emulsion agent was uniformly applied to a foliage part with a small-sized spray. Three weeks after the herbicide application, the effect of the herbicide on each plant was evaluated according to the criteria of Test Example 1.

wild oat = test: Test Example 5: herbicidal effect by foliage application, plastic box (Table 20, symbol I); format: in vivo, wild oat (Avena fatua)
Procedure, shortened: as §1

persian speedwell = test: Test Example 5: herbicidal effect by foliage application, plastic box (Table 20, symbol R); format: in vivo, Persian speedwell (Veronica persica); conditions: foliage application
Procedure, shortened: as §1

windgrass = test: Test Example 5: herbicidal effect by foliage application, plastic box (Table 20, symbol L); format: in vivo, windgrass (Apera spica-venti); conditions: for L: windgrass, herbicidal effect: foliage application, three weeks after application
Procedure, shortened: as §1

[3] = foliage application, 99 g/ha, three weeks after application
[4] = foliage application, AAH 320 g/ha, three weeks after application
[5] = foliage application, AAH 80 g/ha, three weeks after application
[6] = foliage application, AAH 320 g/ha, evaluated three weeks after application
[7] = amount of applied herbicide 320 g/ha
[8] = amount of applied herbicide 320 g/ha, foliage application after 14-day growth, evaluated three weeks after application

Question: With COc1c(C)cccc1-c1sc2ccccc2c1-c1c(O)c(C)nn(C)c1=O [1-067] as the molecule, how does the “herbicidal effect grade, G: green foxtail” value (green foxtail; [3]) read?
Answer: Its value is 0 (Herbicidal rate of 5% or less (almost no effect)).

Question: And the “herbicidal effect on E (rice flat sedge), rating 0-5” value (rice flat sedge; 99 g/ha)?
Answer: The value was 0 (Herbicidal rate of 5% or less (almost no effect)).

Question: And the “herbicidal effect grade, K: Italian ryegrass” value (Italian ryegrass; [3])?
Answer: The value was 0 (Herbicidal rate of 5% or less (almost no effect)).

Question: What about the “herbicidal effect grade, M: velvetleaf” value (velvetleaf; [3]) of the same molecule?
Answer: The value was 2 (Herbicidal rate of 20% or more and less than 40%).

Question: What about the “herbicidal effect grade, J: blackgrass” value (blackgrass; [3]) of the same molecule?
Answer: The value was 0 (Herbicidal rate of 5% or less (almost no effect)).

Question: What about the “herbicidal effect on D (Chinese sprangletop), rating 0-5” value (Chinese sprangletop; 99 g/ha) of the same molecule?
Answer: Its value is 0 (Herbicidal rate of 5% or less (almost no effect)).

Question: What about the “herbicidal effect grade, H: barnyard grass” value (barnyard grass [1]; [3]) of the same molecule?
Answer: Its value is 0 (Herbicidal rate of 5% or less (almost no effect)).

Question: And the “herbicidal effect grade, N: redroot pigweed” value (redroot pigweed; [3])?
Answer: The value was 1 (Herbicidal rate of 5% or more and less than 20%).

Question: What about the “herbicidal effect grade, F: southern crabgrass” value (southern crabgrass; [3]) of the same molecule?
Answer: The value was 0 (Herbicidal rate of 5% or less (almost no effect)).

Question: What about the “herbicidal effect grade, O: lambsquarters” value (lambsquarters; [3]) of the same molecule?
Answer: Its value is 0 (Herbicidal rate of 5% or less (almost no effect)).

Question: What about the “herbicidal effect on H (barnyard grass), rating 0-5” value (barnyard grass [2]; 99 g/ha) of the same molecule?
Answer: The value was 3 (Herbicidal rate of 40% or more and less than 70%).

Question: What about the “herbicidal effect grade, P: chickweed” value (chickweed; [3]) of the same molecule?
Answer: Its value is 2 (Herbicidal rate of 20% or more and less than 40%).

Question: What about the “herbicidal effect grade, I: wild oat” value (wild oat; [3]) of the same molecule?
Answer: The value was 0 (Herbicidal rate of 5% or less (almost no effect)).

Question: And the “herbicidal effect grade, R: persian speedwell” value (persian speedwell; 99 g/ha, three weeks after application)?
Answer: Its value is 0 (Herbicidal rate of 5% or less (almost no effect)).

Question: Which results are given for Cc1nn(C)c(=O)c(-c2c(-c3ccc(OCC(=O)NCC(F)(F)F)cc3)sc3ccccc23)c1O [1-145]?
Answer: G: green foxtail, herbicidal effect (green foxtail; [4]): 0 (Herbicidal rate of 5% or less (almost no effect)); K: Italian ryegrass, herbicidal effect (Italian ryegrass; [4]): 0 (Herbicidal rate of 5% or less (almost no effect)); M: velvetleaf, herbicidal effect (velvetleaf; [4]): 0 (Herbicidal rate of 5% or less (almost no effect)); J: blackgrass, herbicidal effect (blackgrass; [4]): 0 (Herbicidal rate of 5% or less (almost no effect)); L: windgrass, herbicidal effect (windgrass; AAH 320 g/ha): 0 (Herbicidal rate of 5% or less (almost no effect)); H: barnyard grass, herbicidal effect (barnyard grass [1]; [4]): 0 (Herbicidal rate of 5% or less (almost no effect)); N: redroot pigweed, herbicidal effect (redroot pigweed; [4]): 0 (Herbicidal rate of 5% or less (almost no effect)); F: southern crabgrass, herbicidal effect (southern crabgrass; [4]): 0 (Herbicidal rate of 5% or less (almost no effect)); O: lambsquarters, herbicidal effect (lambsquarters; [4]): 0 (Herbicidal rate of 5% or less (almost no effect)); P: chickweed, herbicidal effect (chickweed; [4]): 3 (Herbicidal rate of 40% or more and less than 70%); I: wild oat, herbicidal effect (wild oat; [4]): 0 (Herbicidal rate of 5% or less (almost no effect)); R: persian speedwell, herbicidal effect (persian speedwell; AAH 320 g/ha, three weeks after application): 0 (Herbicidal rate of 5% or less (almost no effect))

Question: Which results are given for COc1cc(OC)cc(-c2sc3ccccc3c2-c2c(O)c(OC)nn(C)c2=O)c1 [1-184]?
Answer: G: green foxtail, herbicidal effect (green foxtail; [5]): 0 (Herbicidal rate of 5% or less (almost no effect)); K: Italian ryegrass, herbicidal effect (Italian ryegrass; [5]): 0 (Herbicidal rate of 5% or less (almost no effect)); M: velvetleaf, herbicidal effect (velvetleaf; [5]): 0 (Herbicidal rate of 5% or less (almost no effect)); J: blackgrass, herbicidal effect (blackgrass; [5]): 0 (Herbicidal rate of 5% or less (almost no effect)); L: windgrass, herbicidal effect (windgrass; AAH 80 g/ha): 0 (Herbicidal rate of 5% or less (almost no effect)); H: barnyard grass, herbicidal effect (barnyard grass [1]; [5]): 0 (Herbicidal rate of 5% or less (almost no effect)); N: redroot pigweed, herbicidal effect (redroot pigweed; [5]): 0 (Herbicidal rate of 5% or less (almost no effect)); F: southern crabgrass, herbicidal effect (southern crabgrass; [5]): 0 (Herbicidal rate of 5% or less (almost no effect)); O: lambsquarters, herbicidal effect (lambsquarters; [5]): 0 (Herbicidal rate of 5% or less (almost no effect)); P: chickweed, herbicidal effect (chickweed; [5]): 4 (Herbicidal rate of 70% or more and less than 90%); I: wild oat, herbicidal effect (wild oat; [5]): 0 (Herbicidal rate of 5% or less (almost no effect)); R: persian speedwell, herbicidal effect (persian speedwell; AAH 80 g/ha, three weeks after application): 0 (Herbicidal rate of 5% or less (almost no effect))

Question: With C=CCOc1c(C)nn(C)c(=O)c1-c1c(-c2ccc(OC(F)F)cc2)sc2ccc(F)cc12 [2-300] as the molecule, how does the “G: green foxtail, herbicidal effect (criteria 0-5)” value (green foxtail; [6]) read?
Answer: Its value is 0 (Herbicidal rate of 5% or less (almost no effect)).

Question: And the “herbicidal effect on E: rice flat sedge” value (rice flat sedge; [7])?
Answer: The value was 3 (Herbicidal rate of 40% or more and less than 70%).

Question: What about the “K: Italian ryegrass, herbicidal effect (criteria 0-5)” value (Italian ryegrass; [6]) of the same molecule?
Answer: Its value is 0 (Herbicidal rate of 5% or less (almost no effect)).

Question: What about the “M: velvetleaf, herbicidal effect (criteria 0-5)” value (velvetleaf; [6]) of the same molecule?
Answer: Its value is 1 (Herbicidal rate of 5% or more and less than 20%).

Question: What about the “J: blackgrass, herbicidal effect (criteria 0-5)” value (blackgrass; [6]) of the same molecule?
Answer: Its value is 0 (Herbicidal rate of 5% or less (almost no effect)).

Question: And the “H: barnyard grass, herbicidal effect (criteria 0-5)” value (barnyard grass [1]; [6])?
Answer: The value was 0 (Herbicidal rate of 5% or less (almost no effect)).

Question: What about the “N: redroot pigweed, herbicidal effect (criteria 0-5)” value (redroot pigweed; [6]) of the same molecule?
Answer: The value was 3 (Herbicidal rate of 40% or more and less than 70%).

Question: And the “F: southern crabgrass, herbicidal effect (criteria 0-5)” value (southern crabgrass; [6])?
Answer: The value was 0 (Herbicidal rate of 5% or less (almost no effect)).

Question: And the “O: lambsquarters, herbicidal effect (criteria 0-5)” value (lambsquarters; [6])?
Answer: The value was 5 (Herbicidal rate of 90% or more (almost completely withered)).

Question: What about the “herbicidal effect on H: barnyard grass” value (barnyard grass [2]; [7]) of the same molecule?
Answer: The value was 3 (Herbicidal rate of 40% or more and less than 70%).

Question: And the “P: chickweed, herbicidal effect (criteria 0-5)” value (chickweed; [6])?
Answer: Its value is 5 (Herbicidal rate of 90% or more (almost completely withered)).

Question: What about the “I: wild oat, herbicidal effect (criteria 0-5)” value (wild oat; [6]) of the same molecule?
Answer: Its value is 0 (Herbicidal rate of 5% or less (almost no effect)).

Question: What about the “R: persian speedwell, herbicidal effect (criteria 0-5)” value (persian speedwell; AAH 320 g/ha, evaluated three weeks after application) of the same molecule?
Answer: The value was 5 (Herbicidal rate of 90% or more (almost completely withered)).

Question: Which results are given for CCCC(=O)Oc1c(C)nn(C)c(=O)c1-c1c(-c2ccccc2OCOC)sc2c(Cl)cccc12 [4-084]?
Answer: Herbicidal effect by foliage application, G: green foxtail (green foxtail; [8]): 2 (Herbicidal rate of 20% or more and less than 40%); herbicidal effect on rice flat sedge (E) (rice flat sedge; 320 g/ha): 4 (Herbicidal rate of 70% or more and less than 90%); Herbicidal effect by foliage application, K: Italian ryegrass (Italian ryegrass; [8]): 0 (Herbicidal rate of 5% or less (almost no effect)); Herbicidal effect by foliage application, M: velvetleaf (velvetleaf; [8]): 4 (Herbicidal rate of 70% or more and less than 90%); Herbicidal effect by foliage application, J: blackgrass (blackgrass; [8]): 0 (Herbicidal rate of 5% or less (almost no effect)); Herbicidal effect by foliage application, L: windgrass (windgrass; [8]): 0 (Herbicidal rate of 5% or less (almost no effect)); herbicidal effect on Chinese sprangletop (D) (Chinese sprangletop; 320 g/ha): 4 (Herbicidal rate of 70% or more and less than 90%); Herbicidal effect by foliage application, H: barnyard grass (barnyard grass [1]; [8]): 3 (Herbicidal rate of 40% or more and less than 70%); Herbicidal effect by foliage application, N: redroot pigweed (redroot pigweed; [8]): 5 (Herbicidal rate of 90% or more (almost completely withered)); Herbicidal effect by foliage application, F: southern crabgrass (southern crabgrass; [8]): 3 (Herbicidal rate of 40% or more and less than 70%); Herbicidal effect by foliage application, O: lambsquarters (lambsquarters; [8]): 0 (Herbicidal rate of 5% or less (almost no effect)); herbicidal effect on barnyard grass (H) (barnyard grass [2]; 320 g/ha): 5 (Herbicidal rate of 90% or more (almost completely withered)); Herbicidal effect by foliage application, P: chickweed (chickweed; [8]): 4 (Herbicidal rate of 70% or more and less than 90%); Herbicidal effect by foliage application, I: wild oat (wild oat; [8]): 0 (Herbicidal rate of 5% or less (almost no effect))

Source: patent US20230085307A1, “PYRIDAZINONE COMPOUND AND HERBICIDE” (NISSAN CHEMICAL CORPORATION, priority 2019, published 2023)
